Literature values as cited in PubChem BioAssay AID1259409 (Chemical Carcinogenesis Research Information System (CCRIS), 2018).

Test system: rodent chemically induced tumor inhibition, incidence and multiplicity
Test: CCRIS tumor inhibitor studies

Row | Structure (SMILES) | tumour outcome (control, treated, inhibition, significance) (Carcinogen: 4-NITROQUINOLINE-1-OXIDE, 56-57-5, Dose [Inhibitor]: 0, 500 PPM IN DIET FOR 7 WK BEGINNING 1 WK PRIOR TO START OF CARCINOGEN TREATMENT (STUDY DURATION: 32 WK), Route [Inhibitor]: ORAL, Species: RAT, Strain/Sex: F344/MALE, Target Tissue: Type of Lesion: TONGUE: PAPILLOMA, Dose [Carcinogen]: 20 PPM IN DRINKING WATER FOR 5 WK, Promoter: NONE USED) | tumour outcome (control, treated, inhibition, significance) (Carcinogen: 7,12-DIMETHYLBENZ[A]ANTHRACENE, 57-97-6, Dose [Inhibitor]: 0.5% IN POWDERED DIET BEGINNING 1 WK POST CARCINOGEN DOSE FOR 51 WK (STUDY DURATION: 52 WK), Route [Inhibitor]: ORAL, Species: RAT, Strain/Sex: SPRAGUE-DAWLEY/FEMALE, Target Tissue: Type of Lesion: EAR DUCT: BENIGN TUMOR, Dose [Carcinogen]: 2.5 MG/100 G BW IN 0.5 ML SESAME OIL ONCE, Promoter: NONE USED) | tumour outcome (control, treated, inhibition, significance) (Carcinogen: 7,12-DIMETHYLBENZ[A]ANTHRACENE, 57-97-6, Dose [Inhibitor]: 0.5% IN POWDERED DIET BEGINNING 1 WK POST CARCINOGEN DOSE FOR 51 WK (STUDY DURATION: 52 WK), Route [Inhibitor]: ORAL, Species: RAT, Strain/Sex: SPRAGUE-DAWLEY/FEMALE, Target Tissue: Type of Lesion: MAMMARY GLAND: CARCINOMA, Dose [Carcinogen]: 2.5 MG/100 G BW IN 0.5 ML SESAME OIL ONCE, Promoter: NONE USED) | tumour outcome (control, treated, inhibition, significance) (Carcinogen: 7,12-DIMETHYLBENZ[A]ANTHRACENE, 57-97-6, Dose [Inhibitor]: 0.5% IN POWDERED DIET BEGINNING 1 WK POST CARCINOGEN DOSE FOR 51 WK (STUDY DURATION: 52 WK), Route [Inhibitor]: ORAL, Species: RAT, Strain/Sex: SPRAGUE-DAWLEY/FEMALE, Target Tissue: Type of Lesion: MAMMARY GLAND: FIBROADENOMA, Dose [Carcinogen]: 2.5 MG/100 G BW IN 0.5 ML SESAME OIL ONCE, Promoter: NONE USED) | tumour outcome (control, treated, inhibition, significance) (Carcinogen: 7,12-DIMETHYLBENZ[A]ANTHRACENE, 57-97-6, Dose [Inhibitor]: 10 UMOL IN 200 µL ACETONE/DMSO (90:10) 2/WK FOR 19 WK BEGINNING 1 WK POST CARCINOGEN DOSE (STUDY DURATION: 20 WK), Route [Inhibitor]: DERMAL, Species: MOUSE, Strain/Sex: CD-1/FEMALE, Target Tissue: Type of Lesion: SKIN: PAPILLOMA, Dose [Carcinogen]: 200 NMOL IN 200 µL ACETONE ONCE, Promoter: 12-O-TETRADECANOYLPHORBOL-13-ACETATE, 16561-29-8) | tumour outcome (control, treated, inhibition, significance) (Carcinogen: 7,12-DIMETHYLBENZ[A]ANTHRACENE, 57-97-6, Dose [Inhibitor]: 20 UMOL IN 200 µL ACETONE/DMSO (90:10) 2/WK FOR 19 WK BEGINNING 1 WK POST CARCINOGEN DOSE (STUDY DURATION: 20 WK), Route [Inhibitor]: DERMAL, Species: MOUSE, Strain/Sex: CD-1/FEMALE, Target Tissue: Type of Lesion: SKIN: PAPILLOMA, Dose [Carcinogen]: 200 NMOL IN 200 µL ACETONE ONCE, Promoter: 12-O-TETRADECANOYLPHORBOL-13-ACETATE, 16561-29-8) | tumour outcome (control, treated, inhibition, significance) (Carcinogen: BENZO[A]PYRENE, 50-32-8, Dose [Inhibitor]: 0.06 MMOL/G OF DIET STARTING 8 D BEFORE AND CONTINUING THROUGH 3 D AFTER LAST CARCINOGEN TREATMENT (STUDY DURATION: 148, Route [Inhibitor]: ORAL, Species: MOUSE, Strain/Sex: ICR/FEMALE, Target Tissue: Type of Lesion: FORESTOMACH: NEOPLASM, Dose [Carcinogen]: 1 MG IN 0.2 ML CORN OIL 2/WK FOR 4 WK, Promoter: NONE USED) | tumour outcome (control, treated, inhibition, significance) (Carcinogen: N-NITROQUINOLINE-1-OXIDE, 56-57-5, Dose [Inhibitor]: 0, 500 PPM IN DIET FOR 7 WK BEGINNING 1 WK PRIOR TO START OF CARCINOGEN TREATMENT (STUDY DURATION: 32 WK), Route [Inhibitor]: ORAL, Species: RAT, Strain/Sex: F344\MALE, Target Tissue: Type of Lesion: TONGUE: CARCINOMA, Dose [Carcinogen]: 20 PPM IN DRINKING WATER FOR 5 WK, Promoter: NONE USED) | tumour outcome (control, treated, inhibition, significance) (Carcinogen: 7,12-DIMETHYLBENZ[A]ANTHRACENE, 57-97-6, Dose [Inhibitor]: 0, 0.2 UMOL 2/WK FOR 19 WK BEGINNING 1 WK POST CARCINOGEN DOSE (STUDY DURATION: 20 WK), Route [Inhibitor]: DERMAL, Species: MOUSE, Strain/Sex: ICR, Target Tissue: Type of Lesion: SKIN: PAPILLOMA, Dose [Carcinogen]: 50 UG ONCE, Promoter: 12-O-TETRADECANOYLPHORBOL-13-ACETATE, 16561-29-8) | tumour outcome (control, treated, inhibition, significance) (Carcinogen: 7,12-DIMETHYLBENZ[A]ANTHRACENE, 57-97-6, Dose [Inhibitor]: 0, 0.2 UMOL IN 100 µL ACETONE:DMSO (9:1) 2/WK FOR 20 WK APPLIED 30 MIN PRIOR TO EACH CARCINOGEN DOSE (STUDY DURATION: 20, Route [Inhibitor]: DERMAL, Species: MOUSE, Strain/Sex: ICR/FEMALE, Target Tissue: Type of Lesion: SKIN: PAPILLOMA, Dose [Carcinogen]: 50 UG IN 100 µL ACETONE ONCE, Promoter: 12-O-TETRADECANOYLPHORBOL-13-ACETATE, 16561-29-8)
1 | O=C(O)/C=C/c1ccc(O)c(O)c1 | 1/15 (7%), 0/15 (0%), 100%, not significant | 7/19 (37%), 10/19 (53%), -43%, not calculated | 6/19 (32%), 9/19 (47%), -50%, not calculated | 15/19 (79%), 11/19 (58%), 27%, not calculated | 68%, 47%, 31%, not calculated | 68%, 38%, 44%, not calculated | 100%, 94%, 6%, not significant | 9/15 (60%), 0/15 (0%), 100%, p=0.00035 | – | –
2 | C=C(CC[C@@H](C(=O)O)[C@H]1[C@H](O)C[C@@]2(C)C3=C(CC[C@]12C)[C@@]1(C)CC[C@H](OC(C)=O)C(C)(C)[C@@H]1CC3)C(C)C | – | – | – | – | – | – | – | – | 73%, 25%, 66%, not calculated | 73%, 27%, 63%, p<0.01
